Test results reported in patent US5883077A, “Inhibitors of factor Xa” (Corvas International, Inc., priority 1993, dated 1999).
Square brackets hold non-standard residues; d marks the D form. Peptide text beside a SMILES is read from it. * marks the point of attachment. d2Nal = N[C@H](Cc1ccc2ccccc2c1)C(=O)O; dPhg = N[C@@H](C(=O)O)c1ccccc1; Boc = CC(C)(C)OC(=O)*

Legend:
Format in all cases: biochemical
Human factor Xa = target: T1, Human factor Xa (Homo sapiens, UniProt P00742); assay: Factor Xa assay, chromogenic substrate S2765; conditions: taken as 100 for each inhibitor by definition
T1 construct: purchased Enzyme Research Laboratories
Method: (§1) To assay their activities, the compounds of the present invention are dissolved in buffer to give solutions containing concentrations ranging under assay concentrations from 0 to about 100 μM. The enzyme to be tested is then added to a solution containing a specified concentration of the test compound. Then after an incubation period, synthetic substrate for the enzyme being tested is added. The rate of substrate turnover is determined spectrophotometrically. The IC50 of the test compound is determined for each test compound in assays for factor xa, factor XIa, thrombin and tPA. IC50 is that concentration of test compound giving 50% inhibition of the substrate turnover. Percent selectivity is used to indicate selectivity of a compound in inhibiting Factor Xa in comparison with either Factor XIa, thrombin or tPA. Percent selectivity of a particular compound for either Factor XIa, thrombin or tPA refers to a number obtained by dividing the product of one hundred and the IC50 of the compound for Factor Xa by the IC50 of the compound for either Factor XIa, thrombin or tPA.
(§2) The specificity of the peptide aldehydes through was determined in vitro by measurement of their IC50 against factor Xa, factor XIa, thrombin and tissue plasminogen activator (tPA). Peptide aldehyde which has been described in the art was run as a comparison. A specific concentration of enzyme and its substrate were challenged with varying concentrations of inhibitor. IC50 is that concentration of inhibitor giving 50% inhibition of catalytic activity, under the assay conditions. Specific assay procedures used are presented below.
Enzyme activity was determined using as substrate, S2765 (N-α-benzyloxycarbonyl-D-argininyl-L-glycyl-L-arginine-p-nitroanilide dihydrochloride) which was obtained from Kabi Diagnostica. The substrate was made up in deionized water prior to use.
Human factor Xa was obtained from Enzyme Research Laboratories. The enzyme was diluted into TBSA prior to use.
(§3) The assay was run by combining in appropriate wells 50 μL of TBSA, 50 μL of inhibitor in TBSA or TBSA (as negative control) and 50 μL of 2 nM human Factor Xa or TBSA (as background control). After incubating this mixture for 60 minutes at room temperature, 50 μL of 1 mM S-2765 was added to each well and the initial rate of the change of the optical density at 405 nm (OD405nm) for each well was determined. OD405nm was measured every 10 seconds for 5 minutes.

Human factor XIa = target: T2, Human factor XIa (Homo sapiens, UniProt P03951); assay: Factor XIa assay, chromogenic substrate S2366; conditions: 100 times the IC50 for factor Xa divided by the IC50 of factor XIa
T2 construct: purchased Enzyme Research Laboratories, Inc
Method: as §1, §2
Enzyme activity was determined using as substrate, S2366 (L-pyroglutamyl-L-prolyl-L-arginine-p-nitroanilide hydrochloride) which was obtained from Kabi Diagnostica. The substrate was made up in deionized water prior to use.
Human factor XIa was obtained from Enzyme Research Laboratories, Inc. The enzyme was diluted into TBSA prior to use.
as §3, with “Factor XIa” for “Factor Xa”, “of 6” for “of 1”, “mM S-2366” for “mM S-2765”

Human α-thrombin = target: T3, Human α-thrombin (Homo sapiens, UniProt P00734); assay: Thrombin assay, chromogenic substrate S2238; conditions: 100 times the IC50 for factor Xa divided by the IC50 of thrombin
T3 construct: Human α-thrombin was obtained from Enzyme Research Laboratories, Inc; purchased Enzyme Research Laboratories, Inc
Method: as §1, §2
Enzyme activity was determined using as substrate, S2238 (D-phenylalanyl-L-pipecolyl-L-arginine-p-nitroanilide dihydrochloride) which was obtained from Kabi Diagnostica. The substrate was made up in deionized water prior to use.
Human α-thrombin was obtained from Enzyme Research Laboratories, Inc. The enzyme was diluted into TBSA prior to use.
(§4) The assay was run by combining in appropriate wells 50 μL of TBSA, 50 μL of inhibitor in TBSA or TBSA (as negative control) and 50 μL of 4 nM human α-thrombin or TBSA (as background control). After incubating this mixture for 60 minutes at room temperature, 50 μL of 0.24 mM S-2238 was added to each well and the initial rate of the change of optical density at 405 nm (OD405nm) for each well was determined. OD405nm was measured every 10 seconds for 5 minutes.

[1] = target: T4, Human recombinant t-PA (Activase®) (Homo sapiens, UniProt P00750); assay: tPA assay, chromogenic substrate Pefachrome tPA; conditions: 100 times the IC50 for factor Xa divided by the IC50 of tPA
T4 construct: purchased Genentech, Inc
Method: as §1, §2
Enzyme activity was determined using as substrate, Pefachrome tPA (O-methylsulfonate-D-hexahydrotyrosine-L-glycyl-L-argini ne-p-nit roanilide acetate salt) which was obtained from Centerchem, Inc. The substrate was made up in deionized water prior to use.
Human recombinant t-PA (Activase®) was obtained from Genentech, Inc. The enzyme was reconstituted with water, then diluted into TBSA prior to use.
as §4, with “recombinant tPA” for “α-thrombin”, “4” for “0.24”, “Pefachrome tPA” for “S-2238”

T4 sequence (P00750 36-562): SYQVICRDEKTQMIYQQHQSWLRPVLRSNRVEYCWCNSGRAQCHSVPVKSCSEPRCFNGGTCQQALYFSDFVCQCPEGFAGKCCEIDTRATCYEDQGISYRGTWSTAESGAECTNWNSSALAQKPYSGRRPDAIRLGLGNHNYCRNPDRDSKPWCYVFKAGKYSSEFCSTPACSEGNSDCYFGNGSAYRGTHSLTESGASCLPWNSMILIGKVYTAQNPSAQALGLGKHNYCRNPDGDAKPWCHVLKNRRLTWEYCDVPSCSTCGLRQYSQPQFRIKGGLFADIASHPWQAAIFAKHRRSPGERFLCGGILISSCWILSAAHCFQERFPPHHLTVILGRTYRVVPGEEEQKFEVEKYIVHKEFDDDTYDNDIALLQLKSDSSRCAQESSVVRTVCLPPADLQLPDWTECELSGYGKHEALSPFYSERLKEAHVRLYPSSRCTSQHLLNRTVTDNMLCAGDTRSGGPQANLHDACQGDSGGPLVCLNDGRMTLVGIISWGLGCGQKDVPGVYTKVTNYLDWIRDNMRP
T1 sequence (P00742 235-488 limits assumed): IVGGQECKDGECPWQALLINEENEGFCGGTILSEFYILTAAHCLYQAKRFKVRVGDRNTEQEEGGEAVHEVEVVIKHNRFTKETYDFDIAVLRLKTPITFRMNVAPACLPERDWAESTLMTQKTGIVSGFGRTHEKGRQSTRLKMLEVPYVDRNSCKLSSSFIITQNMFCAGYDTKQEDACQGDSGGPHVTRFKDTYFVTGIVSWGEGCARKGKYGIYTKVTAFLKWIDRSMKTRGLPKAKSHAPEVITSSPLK
T1 sequence (P00742 41-179 partner limits assumed): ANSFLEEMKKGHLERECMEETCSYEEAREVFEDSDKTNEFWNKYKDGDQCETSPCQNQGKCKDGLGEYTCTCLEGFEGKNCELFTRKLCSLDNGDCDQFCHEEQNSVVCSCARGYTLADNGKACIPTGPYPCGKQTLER
T2 sequence (P03951 388-625 limits assumed): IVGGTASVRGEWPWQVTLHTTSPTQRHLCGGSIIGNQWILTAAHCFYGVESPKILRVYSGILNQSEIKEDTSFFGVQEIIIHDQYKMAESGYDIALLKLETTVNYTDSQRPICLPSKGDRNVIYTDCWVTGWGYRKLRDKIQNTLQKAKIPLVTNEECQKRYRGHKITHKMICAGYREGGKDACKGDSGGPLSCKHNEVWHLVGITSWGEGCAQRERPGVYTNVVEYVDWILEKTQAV
T2 sequence (P03951 19-387 partner limits assumed): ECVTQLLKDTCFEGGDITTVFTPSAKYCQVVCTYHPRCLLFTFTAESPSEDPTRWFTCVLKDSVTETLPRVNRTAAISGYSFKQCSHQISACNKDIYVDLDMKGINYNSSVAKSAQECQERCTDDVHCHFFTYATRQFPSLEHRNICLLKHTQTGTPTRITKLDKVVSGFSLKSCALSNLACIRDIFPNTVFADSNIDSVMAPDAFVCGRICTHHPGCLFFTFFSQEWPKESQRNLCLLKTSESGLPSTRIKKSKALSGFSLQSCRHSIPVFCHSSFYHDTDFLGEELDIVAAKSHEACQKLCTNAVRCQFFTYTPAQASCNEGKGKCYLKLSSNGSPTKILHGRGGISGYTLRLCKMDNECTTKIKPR

CC(C)(C)OC(=O)N[C@H](Cc1ccccc1)C(=O)N1CC[C@H](c2ccccc2)[C@H]1C(=O)N[C@H](C=O)CCCNC(=N)N (relative stereo) [[10], N-t-butoxycarbonyl-D-phenylalanyl-L-(3-trans-phenyl)prolinyl-L-argininal]
Percent Selectivity Xa (Human factor Xa): 100
Percent Selectivity XIa (Human factor XIa): < 2.5
Percent Selectivity Thrombin (Human α-thrombin): < 2.5
Percent Selectivity tPA [1]: < 2.5

CC(C)(C)OC(=O)N[C@H](Cc1ccc2ccccc2c1)C(=O)N[C@@H](Cc1ccccc1)C(=O)N[C@H](C=O)CCCNC(=N)N [[1], N-t-butoxycarbonyl-D-3-(2-naphthyl)alanyl-L-phenylalanyl-L-araininal] (Boc-[d2Nal]-Phe-Arg-aldehyde)
Percent Selectivity Xa (Human factor Xa): 100
Percent Selectivity XIa (Human factor XIa): 1.4
Percent Selectivity Thrombin (Human α-thrombin): 1.6
Percent Selectivity tPA [1]: < 0.9

CC(C)(C)OC(=O)N[C@@H](C(=O)N[C@@H](Cc1ccccc1)C(=O)N[C@H](C=O)CCCNC(=N)N)c1ccccc1 [[2], N-t-butoxycarbonyl-D-2-phenylglycyl-L-phenylalanyl-L-araininal] (Boc-[dPhg]-Phe-Arg-aldehyde)
Percent Selectivity Xa (Human factor Xa): 100
Percent Selectivity XIa (Human factor XIa): 4.9
Percent Selectivity Thrombin (Human α-thrombin): < 2.6
Percent Selectivity tPA [1]: < 2.6

CC(C)(C)OC(=O)N[C@H](Cc1ccccc1)C(=O)N[C@@H](Cc1ccccc1)C(=O)N[C@H](C=O)CCCNC(=N)N [[4], N-t-butoxycarbonyl-D-phenylalanyl-L-phenylalanyl-L-argininal] (Boc-[dF]-Phe-Arg-aldehyde)
Percent Selectivity Xa (Human factor Xa): 100
Percent Selectivity XIa (Human factor XIa): 0.8
Percent Selectivity Thrombin (Human α-thrombin): < 0.8
Percent Selectivity tPA [1]: < 0.8

CC(C)(C)OC(=O)NC(C(=O)N[C@@H](Cc1cccc2ccccc12)C(=O)N[C@H](C=O)CCCNC(=N)N)c1ccc(-c2ccccc2)cc1 (stereo partly drawn) [[7], N-t-butoxycarbonyl-D,L-(α-biphenyl)qlycyl-L-3-(1-naphthyl)alanyl-L-argininal]
Percent Selectivity Xa (Human factor Xa): 100
Percent Selectivity XIa (Human factor XIa): < 10
Percent Selectivity Thrombin (Human α-thrombin): < 10
Percent Selectivity tPA [1]: < 10
